Measured values as given in publication PMC5095173, “Disulfide-activated protein kinase G Iα regulates cardiac diastolic relaxation and fine-tunes the Frank–Starling response” (Nature Communications, 2016).
Where no end group is shown, it is not given here. [ ]: non-standard residue; d: D form. pT = C[C@@H](OP(=O)(O)O)[C@H](N)C(=O)O; Met(O) = CS(=O)CC[C@H](N)C(=O)O; pS = N[C@@H](COP(=O)(O)O)C(=O)O

Tests used:
PKGIα disulfide dimer = conditions: HEK cells, murine aortic rings or mesenteric blood vessels; ref Burgoyne et al. Hypertension 60, 1301-1308 (2012); Rudyk et al. Circulation 126, 287-295 (2012); cited from earlier work
[1] = system: PKGIα (VASP phosphorylation) in mouse embryonic fibroblasts; conditions: ref Muller et al. Free Radic Biol Med 53, 1574-1583 (2012); cited from earlier work
From the text: This transgenic model was developed by the Sadoshima lab (Newark, USA) and the data are included in a PhD thesis (2015) by Daniel Stubbert from this lab. We have amended the manuscript so that it now states that the ...

PLN threonine 17 = conditions: cardiac myocytes exposed to hydrogen peroxide; no reference given; cited from earlier work
[2] = system: PKGIα (analogue-sensitive C42S/M438G), cGMP-activated; experiment: Chemical genetic phosphoproteomic screen, cGMP-activated PKGIα C42S/M438G versus unactivated control; assay type: biochemical, human PKGIα; substrates in rat heart homogenate; conditions: for Log2 fold change in phosphorylation, cGMP versus control: PKGIα C42S/M438G + 100 μM cGMP vs basal, 1 h, 30 °C, pH 7.5, rat heart homogenate, label-free LC–MS/MS, n=4, * P<0.05 Dunnett: all values except phospholamban S16; for log2 fold change cGMP vs Control: control = PKGIα C42S/M438G; for log2 fold changes: Group 1 (cGMP-activated) vs Group 3 (control)
From the text: (§1) We employed a chemical genetic method[18] to identify direct substrates of cGMP-activated PKGIα and disulfide bond-activated PKGIα in heart tissue. This method involves mutation of the ATP binding-site of the kinase of interest so that it can accept a ‘bulky' N6-alkylated ATP analogue for example, N6^−phenylethyl ATP. An oxygen atom on the γ phosphate is also replaced with a sulfur atom—giving an N6-alkylated ATPγS analogue—so that the mutant kinase catalyses the transfer of a thiophosphate group (–PO3S^3−) to its substrates instead of a phosphate. The thiophosphate group is nucleophilic, providing a basis for substrates of the analogue-sensitive kinase to be purified by a ‘covalent capture' protocol. LC–MS/MS allows identification of the substrate and localization of the phosphorylation site. Thiophosphorylated proteins can also be detected with a thiophosphate ester-specific antibody. Analogue-sensitive mutants of PKGIα and PKGIα C42S (which cannot form the activating intermolecular disulfide bond) were generated by mutating Met438 in the ATP-binding domain to Gly. This mutation was chosen based on a previous study where an analogue-sensitive mutant of the catalytic subunit of PKA—which shares sequence homology with PKGIα—was engineered. Detailed protocols are given below.
(§2) A pCDNA3 expression vector encoding human FLAG-tagged PKGIα (ref. [41]) underwent site-directed mutagenesis to generate constructs for untagged WT, C42S, M438G and C42S/M438G PKGIα. Mutations were introduced using the QuikChange II Site-Directed Mutagenesis Kit (Agilent) according to the manufacturer's instructions. Expression and purification of the PKGIα mutants was performed according to a published method[42] as follows: suspension FreeStyle 293-F cells (ThermoFisher Scientific) were transfected with the appropriate PKGIα construct using the stable cationic polymer polyethyleneimine (PEI) as a transfection reagent. After ∼72 h cells were harvested by centrifugation (400g; room temperature; 15 min), re-suspended in ice cold lysis buffer (25 mM sodium phosphate buffer pH 6.8; 10 mM ethylenediaminetetraacetic acid (EDTA); 100 mM NaCl; 10 mM benzamidine hydrochloride; and 10 mM dithiothreitol (DTT)) and frozen in liquid N2. Cells were lysed by three freeze (liquid N2)-thaw (37 °C) cycles and the lysate was clarified by centrifugation at 140,000g and 4 °C for 30 min. The soluble protein fraction was loaded onto a pre-equilibrated 8-(2-aminoethylamino)adenosine-3′, 5′-cyclic monophosphate column (8-AEA-cAMP agarose; BioLog, Germany) followed by washing with 20 column volumes of lysis buffer. The column was further washed with lysis buffer +3 M NaCl (5 column volumes) and PKGIα was then eluted with lysis buffer +150 mM NaCl and 500 μM cAMP. Removal of cAMP and buffer exchange was achieved by extensive dialysis against 25 mM sodium phosphate buffer pH 6.8, 2 mM EDTA and 100 mM NaCl. For ITC analysis, WT PKGIα was incubated with 10 mM lipoic acid for 2 h on ice to obtain ∼100% disulfide dimer (confirmed by SDS-PAGE). Oxidized WT or C42S PKGIα was further purified by size exclusion chromatography using a HiLoad 16/600 Superdex 200 pg column (GE Healthcare) with 50 mM sodium phosphate buffer pH 7.4 and 100 mM NaCl. Proteins were concentrated using Amicon Ultra centrifugal filter devices (Merck Millipore). DTT was absent in storage buffers so that the activating disulfide bond would not be reduced and so that the PKGIα M438G mutant would be oxidized to disulfide dimer in the presence of air (confirmed by SDS-PAGE). Protein concentration was determined by Pierce BCA assay (ThermoFisher) and enzyme activity was confirmed using the Omnia kinase assay kit (ThermoFisher).
(§3) Male Wistar rats (9–10 weeks; body weight 300–330 g) were euthanized by intraperitoneal injection of sodium pentobarbitone (200 mg kg^−1) with heparin (500 USP units). […]

[3] = system: PKGIα (analogue-sensitive M438G), disulfide-activated; experiment: Chemical genetic phosphoproteomic screen, disulfide-activated PKGIα M438G versus unactivated control; assay type: biochemical, human PKGIα; substrates in rat heart homogenate; conditions: for Log2 fold change in phosphorylation, Disulfide versus control: disulfide-activated PKGIα M438G vs basal, 1 h, 30 °C, pH 7.5, rat heart homogenate, label-free LC–MS/MS, * P<0.05 Dunnett: only phospholamban S16; for log2 fold change Disulfide vs Control: control = PKGIα C42S/M438G; for log2 fold changes: Group 2 (disulfide-activated) vs Group 3 (control)
From the text: as §1, §2, §3

Compound | log2 fold change cGMP vs Control [2] | log2 fold change Disulfide vs Control [3] | further results
CC(=O)OC[C@H]1O[C@@H]([S-])[C@H](OC(C)=O)[C@@H](OC(C)=O)[C@@H]1OC(C)=O.CCP(CC)CC.[Au+] [auranofin] | – | – | PKGIα disulfide dimer upon treatment (PKGIα disulfide dimer): accumulation of PKGIα disulfide dimer
OO [hydrogen peroxide] | – | – | effect of pre-oxidation of PKGIα on its activation by cGMP [1]: slightly attenuated; PLN threonine 17 phosphorylation (PLN threonine 17): will become phosphorylated
CAP-Gly domain-containing linker protein 2: PKGIα substrate, phospho site S353 | – | – | Log2 fold change in phosphorylation, cGMP versus control [2]: 2.05*; Log2 fold change in phosphorylation, Disulfide versus control ([3]; n=4): 0.98
Cardiac phospholamban: PKGIα substrate, phospho site S16 (MEKVQYLTRSAIRRA[pS]TIEMPQQARQNLQNLFINFCLILICLLLICIIVMLL; cysteine pairing not given here; UniProt P61016 1-52, looked up) | – | – | Log2 fold change in phosphorylation, cGMP versus control [2]: −0.81; Log2 fold change in phosphorylation, Disulfide versus control ([3]; n=4): 0.41*
Clip2 pS353 | 2.051 | 0.983 | –
E3 ubiquitin-protein ligase TRIP12: PKGIα substrate, phospho site S1073 | – | – | Log2 fold change in phosphorylation, cGMP versus control [2]: 1.63*; Log2 fold change in phosphorylation, Disulfide versus control ([3]; n=4): 0.66
Foxo1 pS270 | 0.9588 | 0.7421 | –
Limd1 pS303 | 2.801 | 2.11 | –
Map1a pS460 | 2.406 | 0.5914 | –
Microtubule-associated protein 1A: PKGIα substrate, phospho site S460 | – | – | Log2 fold change in phosphorylation, cGMP versus control [2]: 2.41*; Log2 fold change in phosphorylation, Disulfide versus control ([3]; n=4): 0.59
Mink1 pS997 (KG[pS]VVNVNPTNTR) | 0.5982 | 0.583 | –
Mrps31 pS191 (RVSFTQIISNMK; also: phosphoserine (pS191), site in peptide not given here) | 0.6921 | 0.1676 | –
Mthfd1 pT545 (KITIGQAPTEK; also: phosphothreonine (pT545), site in peptide not given here) | 3.681 | 1.475 | –
Mybbp1a pS1318 (ARLSLVSR; also: phosphoserine (pS1318), site in peptide not given here) | -0.9192 | -0.09923 | –
Mylk3 pS155 (KG[pS]LADGPEENKEQAEVAGVKPK) | 3.16 | 1.131 | –
Nucb1 pS368 (AQRL[pS]QETEALGR) | 5.775 | 3.208 | –
Nucb2 pS85 (SGRLSQELDLVSHK; also: phosphoserine (pS85), site in peptide not given here) | -1.746 | -0.4443 | –
Olr1571 pS170 (AISSSQGK; also: phosphoserine (pS170), site in peptide not given here) | -4.008 | -1.218 | –
Pcnp pS95 (KASAISIR; also: phosphoserine (pS95), site in peptide not given here) | -1.793 | 0.1824 | –
Pde4a pS140 (RE[pS]FLYR) | 1.223 | 1.1526 | –

Compound | log2 fold change cGMP vs Control [2] | log2 fold change Disulfide vs Control [3] | further results
Pln pS16 (RA[pS]TIEMPQQAR; not fully specified (residue 7)) | -0.8119 | 0.4097 | –
Prkcdbp pS199 (KG[pS]EAAQPTPVKPPR) | 1.54 | 1.3478 | –
Protein SET: PKGIα substrate, phospho site S7 | – | – | Log2 fold change in phosphorylation, cGMP versus control [2]: 3.80*; Log2 fold change in phosphorylation, Disulfide versus control ([3]; n=4): 1.76
Prrc2a pS457 | 0.5056 | 0.2134 | –
RApSTIEMPQQAR [phosphopeptide from the cardiac protein phospholamban] | – | – | phosphopeptide abundance relative to control, PKGIα activated by Cys42 oxidation ([3]; PLN pSer16, P<0.05, n=4): significantly increased relative to control
Rnf123 pS690 (FLSTAAVSL[Met(O)]TPR; also: phosphoserine, site not given here) | 3.971 | -1.634 | –
Ryr2 pS2798 (RISQTSQVSIDAAHGYSPR; also: phosphoserine (pS2798), site in peptide not given here) | – | – | log2 fold changes [2]: 1.758; log2 fold changes [3]: -0.1315
Sarnp pS138 (GLSSDTKP[Met(O)]VNLDK; also: phosphoserine, site not given here) | – | – | log2 fold changes [2]: 4.118; log2 fold changes [3]: 1.9607
Set pS7 (RQ[pS]AILPQPK) | 3.804 | 1.764 | –
Snx17 pS437 (LSSKLSAVSLR; also: phosphoserine pS437, several Ser, place not given here) | – | – | log2 fold changes [2]: 3.5; log2 fold changes [3]: 1.271
Speg pS2019 | – | – | log2 fold changes [2]: 1.632; log2 fold changes [3]: 1.452
Speg pS2135 | – | – | log2 fold changes [2]: 4.01; log2 fold changes [3]: 1.764
Speg pS2410 | – | – | log2 fold changes [2]: -0.7401; log2 fold changes [3]: -0.1096
Stmn1 pS31 (SKESVPEFPLSPPK; also: phosphoserine pS31, several Ser, place not given here) | – | – | log2 fold changes [2]: 4.264; log2 fold changes [3]: 0.3093
Tnni3 pS151 | – | – | log2 fold changes [2]: 2.921; log2 fold changes [3]: -0.2077
Tnni3 pS167 (AKE[pS]LDLR) | – | – | log2 fold changes [2]: 3.492; log2 fold changes [3]: 1.654
Trip12 pS1073 | 1.63 | 0.661 | –
Trmt10c pT377 (RKH[pT]GYLEVPEHSQAAFR) | 1.984 | 0.4487 | –
Troponin I, cardiac muscle: PKGIα substrate, phospho site S167 | – | – | Log2 fold change in phosphorylation, cGMP versus control [2]: 3.49*; Log2 fold change in phosphorylation, Disulfide versus control ([3]; n=4): 1.65
Wipf1 pS324 (NLSLTSPTPPLPSPGR; also: phosphoserine pS324, several Ser, place not given here) | – | – | log2 fold changes [2]: 2.215; log2 fold changes [3]: -0.2547
